Where “and” joins values, the source holds several entries; their conditions need not be identical. Equal entries are not always repeated. Toxic doses and inconclusive results are not listed.
Tested on: P388 leukemia ip, CD2F1 mice, survival T/C
Assay: NCI In Vivo Anticancer Drug Screen. Data for tumor model P388 Leukemia (intraperitoneal) in CD2F1 (CDF1) mice
Details: endpoint: median survival time, higher = longer survival
How it was run: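 Mice carrying the transplanted tumor received test compound or vehicle. Survival was recorded in each group, and the value is the treated-group measurement divided by that of the vehicle-treated control group.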

[1] = dose: 100.0 mg/kg/injection, schedule: Q04DX003 (ip), vehicle: saline with Tween-80
[2] = dose: 60.0 mg/kg/injection, schedule: Q01DX005 (ip), vehicle: saline with Tween-80
[3] = dose: 120.0 mg/kg/injection, schedule: Q01DX005 (ip), vehicle: saline with Tween-80
[4] = dose: 50.0 mg/kg/injection, schedule: Q01DX009 (ip), vehicle: saline
[5] = dose: 100.0 mg/kg/injection, schedule: Q01DX009 (ip), vehicle: saline
[6] = dose: 200.0 mg/kg/injection, schedule: Q01DX009 (ip), vehicle: saline
[7] = dose: 200.0 mg/kg/injection, schedule: Q04DX003 (ip), vehicle: saline with Tween-80
[8] = dose: 400.0 mg/kg/injection, schedule: Q04DX003 (ip), vehicle: saline with Tween-80

**Q.** Which T/C (dose: 50.0 mg/kg/injection, schedule: Q04DX002 (ip), vehicle: saline) does the source give for `CC1(c2ccccc2)C(=O)c2ccccc2N1O` (configuration not stated) here?
**A.** 98 % of control

**Q.** And the T/C (dose: 100.0 mg/kg/injection, schedule: Q04DX002 (ip), vehicle: saline)?
**A.** 100 % of control

**Q.** What about the T/C (dose: 200.0 mg/kg/injection, schedule: Q04DX002 (ip), vehicle: saline) of the same compound?
**A.** 101 % of control

**Q.** With `NNC(=O)C(=O)Nc1ccc(F)cc1` as the compound, how does the T/C (dose: 50.0 mg/kg/injection, schedule: Q01DX009 (ip), vehicle: saline with Tween-80) read?
**A.** 96 % of control

**Q.** What about the T/C (dose: 100.0 mg/kg/injection, schedule: Q01DX009 (ip), vehicle: saline with Tween-80) of the same compound?
**A.** 100 % of control

**Q.** How did the T/C (dose: 25.0 mg/kg/injection, schedule: Q04DX003 (ip), vehicle: saline with Tween-80) turn out when `CCCCCC(Cn1ccnc1)c1ccccc1Br` (configuration not stated) was run?
**A.** 106 % of control

**Q.** What about the T/C (dose: 33.0 mg/kg/injection, schedule: Q04DX003 (ip), vehicle: saline with Tween-80) of the same compound?
**A.** 107 % of control

**Q.** And the T/C (dose: 50.0 mg/kg/injection, schedule: Q04DX003 (ip), vehicle: saline with Tween-80)?
**A.** 100 % of control and 108 % of control and 122 % of control

**Q.** What about the T/C (dose: 75.0 mg/kg/injection, schedule: Q04DX003 (ip), vehicle: saline with Tween-80) of the same compound?
**A.** 92 % of control

**Q.** What about the T/C [1] of the same compound?
**A.** 106 % of control and 111 % of control and 90 % of control

**Q.** `CCOC(=O)CC(=O)N(c1ccc(OC)cc1)C(C(=O)OC)c1ccccc1` (configuration not stated) was tested. Which T/C [2] did it give?
**A.** 101 % of control

**Q.** And the T/C [3]?
**A.** 104 % of control

**Q.** What about the T/C (dose: 240.0 mg/kg/injection, schedule: Q01DX005 (ip), vehicle: saline with Tween-80) of the same compound?
**A.** 104 % of control

**Q.** With `O=NNc1cnc(Br)cn1` as the compound, how does the T/C (dose: 3.13 mg/kg/injection, schedule: Q01DX009 (ip), vehicle: water) read?
**A.** 97 % of control

**Q.** And the T/C (dose: 6.25 mg/kg/injection, schedule: Q01DX009 (ip), vehicle: water)?
**A.** 101 % of control

**Q.** What about the T/C (dose: 12.5 mg/kg/injection, schedule: Q01DX009 (ip), vehicle: water) of the same compound?
**A.** 105 % of control and 108 % of control

**Q.** And the T/C (dose: 25.0 mg/kg/injection, schedule: Q01DX009 (ip), vehicle: water)?
**A.** 108 % of control and 118 % of control

**Q.** What about the T/C (dose: 100.0 mg/kg/injection, schedule: Q01DX009 (ip), vehicle: water) of the same compound?
**A.** 167 % of control

**Q.** For `COC(COC(=O)N1CCN(C=O)CC1)C1=C(N2CC2)C(=O)C(C)=C(N2CC2)C1=O` (configuration not stated), which T/C (dose: 3.13 mg/kg/injection, schedule: Q01DX005 (ip), vehicle: saline) is on record?
**A.** 177 % of control

**Q.** For `COc1ccc(C(=O)C(CCC(=O)c2ccc(O)cc2)S(C)(=O)=O)cc1` (configuration not stated), which T/C (dose: 50.0 mg/kg/injection, schedule: Q01DX005 (ip), vehicle: Klucel (hydroxypropylcellulose) (HPC)) is on record?
**A.** 100 % of control

**Q.** And the T/C (dose: 100.0 mg/kg/injection, schedule: Q01DX005 (ip), vehicle: Klucel (hydroxypropylcellulose) (HPC))?
**A.** 93 % of control

**Q.** What about the T/C (dose: 200.0 mg/kg/injection, schedule: Q01DX005 (ip), vehicle: Klucel (hydroxypropylcellulose) (HPC)) of the same compound?
**A.** 96 % of control

**Q.** `CC(=O)NC1=CC(=O)c2[nH]c(=O)[nH]c(=O)c2C1=O` was tested. Which T/C (dose: 3.0 mg/kg/injection, schedule: Q01DX005 (ip), vehicle: other) did it give?
**A.** 99 % of control

**Q.** And the T/C (dose: 6.0 mg/kg/injection, schedule: Q01DX005 (ip), vehicle: other)?
**A.** 98 % of control

**Q.** And the T/C (dose: 12.0 mg/kg/injection, schedule: Q01DX005 (ip), vehicle: other)?
**A.** 100 % of control

**Q.** What does the source list for `O=C(O)CS(=O)NN(c1ccccc1)c1ccccc1` (configuration not stated)?
**A.** T/C (dose: 100.0 mg/kg/injection, schedule: Q04DX002 (ip), vehicle: saline with Tween-80): 102 % of control; T/C (dose: 200.0 mg/kg/injection, schedule: Q04DX002 (ip), vehicle: saline with Tween-80): 102 % of control

**Q.** Which T/C (dose: 3.75 mg/kg/injection, schedule: Q01DX005 (ip), vehicle: saline with Tween-80) does the source give for `CCCCc1c(C#N)c(=O)n2c(N)c(C(=O)OCC)cnc2c1SC` here?
**A.** 104 % of control and 108 % of control

**Q.** What about the T/C (dose: 7.5 mg/kg/injection, schedule: Q01DX005 (ip), vehicle: saline with Tween-80) of the same compound?
**A.** 117 % of control and 120 % of control

**Q.** And the T/C (dose: 15.0 mg/kg/injection, schedule: Q01DX005 (ip), vehicle: saline with Tween-80)?
**A.** 120 % of control

**Q.** What about the T/C [2] of the same compound?
**A.** 98 % of control

**Q.** What about the T/C [3] of the same compound?
**A.** 92 % of control

**Q.** What does the source list for `CC(=O)NC(Cc1c[nH]c2ccccc12)C(=O)Oc1ccc([N+](=O)[O-])cc1` (configuration not stated)?
**A.** T/C [4]: 95 % of control; T/C [5]: 98 % of control; T/C [6]: 92 % of control

**Q.** With `CCCCC(CC)C(=O)N1CCOCC1` (configuration not stated) as the compound, how does the T/C [1] read?
**A.** 100 % of control

**Q.** What about the T/C [7] of the same compound?
**A.** 100 % of control

**Q.** What about the T/C [8] of the same compound?
**A.** 100 % of control

**Q.** What does the source list for `O=C(O)CCC(=O)NCCOC(=O)CCC(=O)O`?
**A.** T/C [4]: 99 % of control; T/C [5]: 104 % of control; T/C [6]: 106 % of control

**Q.** Which results are given for `O=c1c2[nH]c3ccccc3sc=2c(=O)n1-c1c(F)c(F)c(F)c(F)c1F`?
**A.** T/C (dose: 50.0 mg/kg/injection, schedule: Q01DX005 (ip), vehicle: saline with Tween-80): 109 % of control; T/C (dose: 100.0 mg/kg/injection, schedule: Q01DX005 (ip), vehicle: saline with Tween-80): 103 % of control; T/C (dose: 200.0 mg/kg/injection, schedule: Q01DX005 (ip), vehicle: saline with Tween-80): 100 % of control

**Q.** Which results are given for `O=C(COc1ccc(Cl)cc1Cl)NC(O)C(Cl)(Cl)Cl` (configuration not stated)?
**A.** T/C [1]: 108 % of control; T/C [7]: 116 % of control; T/C [8]: 100 % of control

From PubChem BioAssay AID330 (DTP/NCI, 2004)
